This passage reports IC50 results from patent publication US11999752B2, “Vinyl imidazole compounds as inhibitors of KRAS” (Incyte Corporation, priority 2020, dated 2024).

One assay deals with KRAS G12C (Homo sapiens, UniProt P01116, G12C). The experiment in a line: GDP-GTP exchange assay (fluorescence based guanine nucleotide exchange, bodipy-GDP for GppNHp, SOS1). Format: biochemical. The settings on record: bodipy-loaded KRAS G12C 2.5 nM, GppNHp 500 uM, SOS1 150 nM; 2 hours pre-incubation with inhibitor; read-out: G12C_exchange IC50. As to the method: Example A. GDP-GTP Exchange Assay.
The inhibitor potency of the exemplified compounds was determined in a fluorescence based guanine nucleotide exchange assay, which measures the exchange of bodipy-GDP (fluorescently labeled GDP) for GppNHp (Non-hydrolyzable GTP analog) to generate the active state of KRAS in the presence of SOS1 (guanine nucleotide exchange factor). Inhibitors were serially diluted in DMSO and a volume of 0.1 μL was transferred to the wells of a black low volume 384-well plate. 5 μL/well volume of bodipy-loaded KRAS G12C diluted to 5 nM in assay buffer (25 mM Hepes pH 7.5, 50 mM NaCl, 10 mM MgCl2 and 0.01% Brij-35) was added to the plate and pre-incubated with inhibitor for 2 hours at ambient temperature. Appropriate controls (enzyme with no inhibitor or with a G12C inhibitor (AMG -510)) were included on the plate. The exchange was initiated by the addition of a 5 μL/well volume containing 1 mM GppNHp and 300 nM SOS1 in assay buffer. The 10 μL/well reaction concentration of the bodipy-loaded KRAS G12C, GppNHp, and SOS1 were 2.5 nM, 500 uM, and 150 nM, respectively. The reaction plates were incubated at ambient temperature for 2 hours, a time estimated for complete GDP-GTP exchange in the absence of inhibitor. For the KRAS G12D and G12V mutants, similar guanine nucleotide exchange assays were used with 2.5nM as final concentration for the bodipy loaded KRAS proteins and with 4 hours and 3 hours incubation after adding GppNHp-SOS1 mixture for G12D and G12V respectively. A cyclic peptide described to selectively bind G12D mutant (Sakamoto et al., BBRC 484.3 (2017), 605-611) or internal compounds with confirmed binding were used as positive controls in the assay plates. Fluorescence intensities were measured on a PheraStar plate reader instrument (BMG Labtech) with excitation at 485 nm and emission at 520 nm.
Either GraphPad prism or XLfit was used to analyze the data. The IC50 values were derived by fitting the data to a four parameter logistic equation producing a sigmoidal dose -response curve with a variable Hill coefficient. Y=Bottom+(Top−Bottom)/(1+10^((LogIC50−X)*Hill slope)); XLfit equation: Y=(A+((B−A)/(1+((X/C)^D)))) where X is the logarithm of inhibitor concentration and Y is the response. Prism equation: […]

Assay [1] concerns MIA PaCa-2 (KRAS G12C) cells. Briefly: Cellular pERK HTRF assay. It is filed as cell-based, human. The settings on record: KRAS_G12C pERK assay, cells incubated with compounds 4 hours, read-out: G12C_pERK IC50. The method, then: Example C: Cellular pERK HTRF Assay
MIA PaCa-2 (KRAS G12C; ATCC® CRL-1420), A427 (KRAS G12D; ATCC® HTB53), HPAF-II (KRAS G12D; ATCC® CRL-1997) and NCI-H838 (KRAS WT; ATCC® CRL-5844) cells are purchased from ATCC and maintained in RPMI 1640 media supplemented with 10% FBS (Gibco/Life Technologies). The cells are plated at 5000 cells per well (8 uL) into Greiner 384-well low volume, flat-bottom, tissue culture treated white plates and incubated overnight at 37° C., 5% CO2. The next morning, test compound stock solutions are diluted in media at 3× the final concentration, and 4 uL are added to the cells. The plate is mixed by gentle rotation for 30 seconds (250rpm) at room temperature. The cells are incubated with the KRAS G12C and G12D compounds for 4 hours or 2 hours respectively at 37° C., 5% CO2.
4 uL of 4× lysis buffer with blocking reagent (1:25) (Cisbio) are added to each well and plates are rotated gently (300 rpm) for 30 minutes at room temperature. 4 uL per well of Cisbio anti Phospho-ERK 1/2 d2 is mixed with anti Phospho-ERK 1/2 Cryl)tate (1:1) are added to each well, mixed by rotation and incubated overnight in the dark at room temperature. Plates are read on the Pherastar plate reader at 665 nm and 620 nm wavelengths. IC50 determination is performed by fitting the curve of inhibitor percent inhibition versus the log of the inhibitor concentration using the GraphPad Prism 7 software.

Like-named read-outs stand apart in the source and are kept apart here.

Take “4-(1-cyclopropyl-3-vinyl-5,6-dihydroimidazo[1,5-a]pyrazin-7(8H)-yl)-7-(2-fluoro-6-hydroxyl)henyl)-1-(2-isopropyl-4-methylpyridin-3-yl)quinazolin-2(1H)-one [Example 8]”: at KRAS G12C, the IC50 lay within 100 to 1000 nM.

As to `C=Cc1ncc2n1CCN(c1nc(OCC3CCCN3C)nc3c(F)c(-c4cc(O)cc5ccccc45)c(Cl)cc13)C2` (racemic) [Example 11, 4-(6-chloro-8-fluoro-2-((1-methylpyrrolidin-2-yl)methoxy)-4-(3-vinyl-5,6-dihydroimidazo[1,5-a]pyrazin-7(8H)-yl)quinazolin-7-yl)naphthalen-2-ol], the IC50 was ≤ 100 nM at KRAS G12C and 1000 to 5000 nM in assay [1] (Homo sapiens, MIA PaCa-2).

Regarding `C=Cc1ncc2n1CCN(c1nc(OCC3CCCN3C)nc3c(F)c(-c4c(O)cccc4F)c(Cl)cc13)C2` (racemic) [Example 12, 2-(6-chloro-8-fluoro-2-((1-methylpyrrolidin-2-yl)methoxy)-4-(3-vinyl-5,6-dihydroimidazo[1,5-a]pyrazin-7(8H)-yl)quinazolin-7-yl)-3-fluorophenol], the IC50 at KRAS G12C was in the range of 100 to 1000 nM; in assay [1] (Homo sapiens, MIA PaCa-2) it was 5000 to 10000 nM. On to `C=Cc1ncc2n1CCN(c1nc(OCC3CCCN3C)nc3c(F)c(-c4c(C)ccc5[nH]ncc45)c(Cl)cc13)C2` (racemic) [Example 13, 6-chloro-8-fluoro-7-(5-methyl-1H-indazol-4-yl)-2-((1-methylpyrrolidin-2-yl)methoxy)-4-(3-vinyl-5,6-dihydroimidazo[1,5-a]pyrazin-7(8H)-yl)quinazoline], for which the IC50 on KRAS G12C is 100 to 1000 nM; in assay [1] (Homo sapiens, MIA PaCa-2), 5000 to 10000 nM. In the same order, the values of `C=Cc1ncc2n1CCN(c1nc(OC3CCCN(C)C3)nc3c(F)c(-c4cc(O)cc5ccccc45)c(Cl)cc13)C2` (racemic) [Example 18, 4-(6-chloro-8-fluoro-2-((1-methylpiperidin-3-yl)oxy)-4-(3-vinyl-5,6-dihydro-imidazo[1,5-a]pyrazin-7(8H)-yl)quinazolin-7-yl)naphthalen-2-ol] are 100 to 1000 nM and 5000 to 10000 nM.

As for `C=Cc1ncc2n1CCN(c1nc(=O)n(-c3c(C)ccnc3C(C)C)c3nc(-c4c(O)cccc4F)c(F)cc13)C2` (single isomer, unassigned) [Example 1], the IC50 on KRAS G12C lay within 100 to 1000 nM; in assay [1] (Homo sapiens, MIA PaCa-2), 5000 to 10000 nM. As to `C=Cc1ncc2n1CCN(c1nc(=O)n(-c3c(C)ccnc3C(C)C)c3nc(-c4c(O)cccc4F)c(F)cc13)C2` (single isomer, unassigned) [Example 2], the IC50 at KRAS G12C is 100 to 1000 nM; in assay [1], 5000 to 10000 nM. In the case of `C=Cc1ncc2n1CCN(c1nc(=O)n(CC3CC3)c3nc(-c4c(O)cccc4F)c(F)cc13)C2` [Example 3], the IC50 at KRAS G12C was in the range of 100 to 1000 nM; in assay [1] (Homo sapiens, MIA PaCa-2) it was 5000 to 10000 nM.

For the compound `C=Cc1ncc2n1CCN(c1nc(=O)n(C(C)C)c3nc(-c4c(O)cccc4F)c(F)cc13)C2` [Example 4], the IC50 was 100 to 1000 nM on KRAS G12C and 5000 to 10000 nM in assay [1] (Homo sapiens, MIA PaCa-2). For `C=Cc1ncc2n1CCN(c1nc(=O)n(CCOC)c3nc(-c4c(O)cccc4F)c(F)cc13)C2` [Example 5], the 50% inhibitory concentration (IC50) on KRAS G12C was in the range of 1000 to 5000 nM.

For `Cc1ccnc(C(C)C)c1-n1c(=O)nc(N2CCn3c(cnc3/C=C/c3cc(F)cc(F)c3)C2)c2cc(F)c(-c3c(O)cccc3F)nc21` [Example 6], the IC50 at KRAS G12C lay within 1000 to 5000 nM. Same read-out and setting: for `Cc1ccnc(C(C)C)c1-n1c(=O)nc(N2CCn3c(cnc3/C=C/c3ccc(F)cc3F)C2)c2cc(F)c(-c3c(O)cccc3F)nc21` [Example 7] the value was 1000 to 5000 nM; for `C=Cc1nc(CN2CC(C(F)(F)F)C2)c2n1CCN(c1nc(=O)n(-c3c(C)ccnc3C(C)C)c3nc(-c4c(O)cccc4F)c(F)cc13)C2` [Example 9], 1000 to 5000 nM; for `C=Cc1nc(CN(C)CC#N)c2n1CCN(c1nc(=O)n(-c3c(C)ccnc3C(C)C)c3nc(-c4c(O)cccc4F)c(F)cc13)C2` [Example 10], 1000 to 5000 nM. On to `C=Cc1ncc2n1CCN(c1nc(OCCN(C)C)nc3c(F)c(-c4cc(O)cc5ccccc45)c(Cl)cc13)C2` [Example 14, 4-(6-chloro-2-(2-(dimethylamino)ethoxy)-8-fluoro-4-(3-vinyl-5,6-dihydroimidazo[1,5-a]pyrazin-7(8H)-yl)quinazolin-7-yl)naphthalen-2-ol], for which the IC50 at KRAS G12C fell in the range of 100 to 1000 nM; in assay [1] (Homo sapiens, MIA PaCa-2), 1000 to 5000 nM. In the same order, the values of `C=Cc1ncc2n1CCN(c1nc(OC3CCN(C)CC3)nc3c(F)c(-c4cc(O)cc5ccccc45)c(Cl)cc13)C2` [Example 15, 4-(6-chloro-8-fluoro-2-((1-methylpiperidin-4-yl)oxy)-4-(3-vinyl-5,6-dihydroimidazo[1,5-a]pyrazin-7(8H)-yl)quinazolin-7-yl)naphthalen-2-ol] are 100 to 1000 nM and 5000 to 10000 nM. In the same order, the values of `C=Cc1ncc2n1CCN(c1nc(OCCN3CCOCC3)nc3c(F)c(-c4cc(O)cc5ccccc45)c(Cl)cc13)C2` [Example 16, 4-(6-chloro-8-fluoro-2-(2-morpholinoethoxy)-4-(3-vinyl-5,6-dihydroimidazo-[1,5-a]pyrazin-7(8H)-yl)quinazolin-7-yl)naphthalen-2-ol] are 100 to 1000 nM and 5000 to 10000 nM. As for `C=Cc1ncc2n1CCN(c1nc(OC[C@@H]3CCCN3C)nc3c(F)c(-c4cc(O)cc5ccccc45)c(Cl)cc13)C2` [Example 17, 4-(6-chloro-8-fluoro-2-(((S)-1-methylpyrrolidin-2-yl)methoxy)-4-(3-vinyl-5,6-dihydroimidazo[1,5-a]pyrazin-7(8H)-yl)quinazolin-7-yl)naphthalen-2-ol], the IC50 on KRAS G12C fell in the range of 100 to 1000 nM; in assay [1] (Homo sapiens, MIA PaCa-2), 1000 to 5000 nM.

As to `C=Cc1ncc2n1CCN(c1nc(N3CC(N(C)C)C3)nc3c(F)c(-c4cc(O)cc5ccccc45)c(Cl)cc13)C2` [Example 19, 4-(6-chloro-2-(3-(dimethylamino)azetidin-1-yl)-8-fluoro-4-(3-vinyl-5,6-dihydroimidazo[1,5-a]pyrazin-7(8H)-yl)quinazolin-7-yl)naphthalen-2-ol], the IC50 fell in the range of 100 to 1000 nM on KRAS G12C and 1000 to 5000 nM in assay [1] (Homo sapiens, MIA PaCa-2).
